In one test the test system is Aβ1-40 peptide secretion. The test can be described thus: Quantification of secreted Aβ1-40 by ELISA in SY5Y-APP695WT cells. The test is classed as cell-based. As to conditions: Homo sapiens; concentration inhibiting 50% of Aβ1-40 peptide secretion in SY5Y cells; 24 h treatment; mean ± SD of at least two experiments in triplicate. As to the method: (§1) Cell culture and treatment. The human neuroblastoma cell line […] was maintained in Dulbecco's modified Eagle medium (DMEM, high glucose, pyruvate-GIBCO by Life Technologies) supplemented with 10% foetal bovine serum, 2 mM L-glutamine, 1 mM non-essential amino acids and penicillin/streptomycin (GIBCO by Life Technologies) at 37° C. in a 5% CO2 humidified incubator. […] cells were maintained in 75 cm^2 culture flasks (Falcon) with supplemented DMEM medium until they reached 80% of confluence 24 h before treatment. For compounds treatment, a 10 mM stock solution was diluted in freshly supplemented DMEM medium to obtain the precise final concentration of drug. Bafilomycin A1 (BafA1), the vacuolar […] type H+ ATPase inhibitor, was purchased from Merck Millipore and was used at a final dilution of 100 nM. For drug treatment, cells were plated at a rate of 5·10^5 cells per well into 12-well plates (Falcon) and cultured with 1 mL supplemented DMEM cell medium for 24 h before drug exposure. The following day, cell medium was replaced with fresh medium containing drugs diluted at the indicated concentrations. Cells were treated for 24 h. At the end of treatments, the cell medium was collected and kept at -80° C. until use for dosage. Then, cells were rinsed once with PBS and extracted in 100 μL of Laemmli buffer (10 mM Tris, 20% glycerol and 2% Sodium dodecyl sulfate) using a cell-scraper. The cell lysate was further sonicated (30 pulses of 0.5 s, 60 Hz) for 5 min. Total protein concentration was determined using the Pierce BCA Protein Assay Kit (Thermo scientific) according to the manufacturer's instructions. Samples were stored at -80° C. until analysis. Quantification of secreted Aβ1-40/1-42 and sAPPα/sAPPβ. Conditioned media of […] collected at the end of treatments were centrifuged at 1000 g for 5 min to eliminate cells debris. Aβ1-40 and Aβ1-42 peptide concentrations in […] were determined using amyloid-beta 40 and 42 Human ELISA kits (Invitrogen) according to the manufacturer's instructions after 1:10 and 1:2 dilutions of supernatants in ELISA buffer, respectively. sAPPα and sAPPβ concentrations in ng/mL were determined using the sAPPα/sAPPβ kit (Meso Scale Diagnostics, MSD®) according to the manufacturer's instructions. Compounds of the invention (compounds 24-37, 41, 44 and 51-58) were evaluated for their ability to modulate APP processing on SY5Y human neuroblastoma cell line stably expressing the neuronal isoform of human wild-type APP695 (SYSY-APPwt). Aβ levels (Aβ1-40 and Aβ1-42) after treatment with reference and tested compounds were measured by ELISA (Table 2). […] APP carboxy-terminal fragments (αCTFs and AICD) were measured by Western blot and quantified. The effect of reference and tested compounds on αCTFs and AICD are expressed as the intensity of corresponding western-blot bands resulting from the secretase cleavages.
A general note: An ELISA detects its analyte on a solid surface through an enzyme-linked reagent.

Another test concerns Aβ1-42 peptide secretion. The test can be described thus: Quantification of secreted Aβ1-42 by ELISA in SY5Y-APP695WT cells. The test is classed as cell-based. The settings on record: Homo sapiens; concentration inhibiting 50% of Aβ1-42 peptide secretion in SY5Y cells; 24 h treatment; mean ± SD of at least two experiments in triplicate. As for the experimental part: as §1
The test system of the next test is CTFα. The test can be described thus: APP carboxy-terminal fragment αCTF by Western blot in SY5Y-APP695WT cells. The test is classed as cell-based, human. The settings on record: CTFα increase compared to chloroquine ([CTF]compound/[CTF]CQ) at 3 μM; mean of at least three experiments. From the text:
(§2) Antibodies. Primary antibodies used in this study for western-blot analysis included a homemade rabbit antiserum against the last 17 amino acids of human APP protein sequence, named APP-Cter-C17 (1/5000 in TBS-M). Anti-β-actin (1/10 000 in TBS-M) was obtained from Sigma. Anti-LC3B (1/2000 in TBS-BSA) and anti-p62/SQSTM1 (1/2000 in TBS-M) antibodies were purchased from Cell Signaling Technology. Secondary antibodies (peroxidase-labeled goat anti-rabbit IgG, 1/5000 or peroxidase-labeled horse anti-mouse IgG, 1/50000 in TBS-T) were obtained from Vector Laboratories.
(§3) Cell culture and treatment. The human neuroblastoma cell line SY5Y-APP^695WT was maintained in Dulbecco's modified Eagle medium (DMEM, high glucose, pyruvate—GIBCO by Life Technologies) supplemented with 10% foetal bovine serum, 2 mM L-glutamine, 1 mM non-essential amino acids and penicillin/streptomycin (GIBCO by Life Technologies) at 37° C. in a 5% CO2 humidified incubator. SY5Y-APP^695WT cells were maintained in 75 cm^2 culture flasks (Falcon) with supplemented DMEM medium until they reached 80% of confluence 24 h before treatment.
(§4) For drug treatment, cells were plated at a rate of 5·10^5 cells per well into 12-well plates (Falcon) and cultured with 1 mL supplemented DMEM cell medium for 24 h before drug exposure. The following day, cell medium was replaced with fresh medium containing drugs diluted at the indicated concentrations. Cells were treated for 24 h. At the end of treatments, the cell medium was collected and kept at −80° C. until use for dosage. Then, cells were rinsed once with PBS and extracted in 100 μL of Laemmli buffer (10 mM Tris, 20% glycerol and 2% Sodium dodecyl sulfate) using a cell-scraper. The cell lysate was further sonicated (30 pulses of 0.5 s, 60 Hz) for 5 min. Total protein concentration was determined using the Pierce BCA Protein Assay Kit (Thermo scientific) according to the manufacturer's instructions. Samples were stored at −80° C. until analysis.
(§5) Western Blot Analysis. Cell protein lysates were prepared for western-blot analysis by diluting the sample with 1 volume of NuPAGE® lithium dodecyl sulfate (LDS) 2× sample buffer supplemented with 20% NuPAGE® sample reducing agents (Invitrogen). Samples were heat 10 min at 100° C. 10 μg of total proteins per well were loaded onto a precast 4-12% Criterion XT Bis-Tris polyacrylamide gel (Bio-Rad) and electrophoresis was achieved after applying a tension of 150 V during 90 min using a Criterion electrophoresis Cell with the NuPAGE® MOPS SDS running buffer (1×). Proteins were transferred to a nitrocellulose membrane of […] pore size (G&E Healthcare) using the Criterion blotting system and applying a tension of 100 V for 45 min. To resolve proteins of low molecular weights such as carboxy-terminal fragments of APP, 12% Criterion XT Bis-Tris polyacrylamide gels (Bio-Rad) were used and electrophoresis was performed during 70 min at 150 V in a NuPAGE® MES SDS running buffer (1×). Proteins were transferred to a nitrocellulose membrane of 0.2 μm pore size (G&E Healthcare) at 100 V for 40 min. Molecular weights calibration was achieved using molecular weight markers (Novex and Magic Marks, Life Technologies). Protein transfer and quality were determined by a reversible Ponceau Red coloration (0.2% Xylidine Ponceau Red and 3% Trichloroacetic acid). Membranes were then blocked in 25 mM Tris-HCl pH 8.0, 150 mM NaCl, 0.1% Tween-20 (v/v) (TBS-T) and 5% (w/v) of skimmed milk (TBS-M) or 5% (w/v) of bovine serum albumin (TBS-BSA) depending on the antibody during 1 h. Membrane was rinsed three-times 10 min in TBS-T before incubation with the primary antibody overnight at 4° C. Membrane was rinsed 3 times 10 min with TBS-T and then incubated with the secondary antibody for 45 min at room temperature (RT). […] Quantifications of protein expression levels were performed with ImageJ Software (NIH). […]
Background: A western blot detects proteins with antibodies after separation by electrophoresis.

The test system of the next test is AICD. The test can be described thus: AICD by Western blot in SY5Y-APP695WT cells. Type of test: cell-based, human. As to conditions: AICD increase compared to chloroquine ([AICD]compound/[AICD]CQ) at 3 μM; mean of at least three experiments.
Source text: as §2, §3, §4, §5

We go through 13 molecules from US20210230131A1, “POLYAMINO BIARYL COMPOUNDS AND THEIR USE” (INSERM (INSTITUT NATIONAL DE LA SANTÉ ET DE LA RECHERCHE …, priority 2018, published 2021).

Turning to `c1cc(-c2ccc(NCCCN3CCCCC3)c(OCCN3CCCCC3)c2)ccc1CN1CCCCC1` [Compound 24, 2-[2-(Piperidin-1-yl)ethoxy]-N-[3-(piperidin-1-yl)propyl]-4-[4-(piperidin-1-ylmethyl)phenyl]aniline], the values for the IC50 in the test with Aβ1-40 peptide secretion and with Aβ1-42 peptide secretion were 2.1 ± 0.6 µM and 3.3 ± 2.1 µM, respectively. Moreover, the “CTFα vs CQ (3 μM)” value in the test on CTFα was determined as 2.6. Further, the “AICD vs CQ (3 μM)” value in the test with AICD came out at 2.5.
Turning to `c1cn(-c2ccc(NCCCN3CCCCC3)c(OCCN3CCCCC3)c2)cc1CN1CCCCC1` [Compound 52, 2-[2-(Piperidin-1-yl)ethoxy]-N-[3-(piperidin-1-yl)propyl]-4-[3-(piperidin-1-ylmethyl)-1H-pyrrol-1-yl]aniline], the results for the IC50 in the test on Aβ1-40 peptide secretion and in the test on Aβ1-42 peptide secretion were 3.7 ± 1.3 µM and 5 ± 0.3 µM, respectively. The “CTFα vs CQ (3 μM)” value with CTFα is 3.3. Moreover, in the test with AICD, the “AICD vs CQ (3 μM)” value turned out to be 1.2.
For `CN(C)Cc1ccccc1-c1cccc(OCCN2CCCCC2)c1` [Compound 41, N,N-Dimethyl-1-(3′-(2-(piperidin-1-yl)ethoxy)-[1,1′-biphenyl]-2-yl)methanamine], the values for the IC50 in the test with Aβ1-40 peptide secretion and with Aβ1-42 peptide secretion were 1.5 ± 0.3 µM and 1.2 ± 0.3 µM, respectively. The “CTFα vs CQ (3 μM)” value in the test on CTFα is reported as 0.6. In the test with AICD, the “AICD vs CQ (3 μM)” value came to 0.7.
On the same counts, the results for `c1cn(-c2ccc(NCCCN3CCCCC3)c(OCCN3CCCCC3)c2)cc1CN1CCOCC1` [Compound 53, 4-[3-(Morpholin-4-ylmethyl)-1H-pyrrol-1-yl]-2-[2-(piperidin-1-yl)ethoxy]-N-[3-(piperidin-1-yl)propyl]aniline] are 3.3 ± 0.2 µM, 3.5 ± 1.1 µM, 1.7 and 3.3.
Regarding `c1cc(CN2CCCCC2)cc(-c2ccc(NCCCN3CCCCC3)c(OCCN3CCCCC3)c2)c1` [Compound 26, 2-[2-(1-piperidyl)ethoxy]-4-[3-(1-piperidylmethyl)phenyl]-N-[3-(1-piperidyl)propyl]aniline], the figures for the IC50 with Aβ1-40 peptide secretion and in the test on Aβ1-42 peptide secretion were 4.3 ± 0.7 µM and 4.8 ± 0.6 µM, respectively. In addition, the “CTFα vs CQ (3 μM)” value in the test with CTFα is 3.3. Besides, the “AICD vs CQ (3 μM)” value in the test with AICD was found to be 2.6.
Consider `CCN(CC)CCCC(C)Nc1ccnc2cc(Cl)ccc12` (stereo not drawn) [CQ, chloroquine, reference compound], for which the “CTFα vs CQ (3 μM)” value in the test on CTFα was 1. In addition, the “AICD vs CQ (3 μM)” value with AICD came out at 1.
On to `CN(C)CCCNc1ccc(-n2ccc(CN(C)C)c2)cc1OCCN1CCCCC1` [Compound 55, 4-(3-[(dimethylamino)methyl]-1H-pyrrol-1-yl)-N-[3-(dimethylamino)propyl]-2-[2-(piperidin-1-yl)ethoxy]aniline], for which the results for the IC50 in the test on Aβ1-40 peptide secretion and in the test on Aβ1-42 peptide secretion were 6.1 ± 0.7 µM and 8 ± 1.6 µM, respectively. Besides, the “CTFα vs CQ (3 μM)” value in the test with CTFα is given as 1.2. In addition, in the test with AICD, the “AICD vs CQ (3 μM)” value came out at 0.8.
On the same counts, the results for `CN(C)CCCNc1ccc(-n2ccc(CN3CCN(C)CC3)c2)cc1OCCN1CCCCC1` [Compound 58, N-[3-(dimethylamino)propyl]-4-(3-[(4-methylpiperazin-1-yl)methyl]-1H-pyrrol-1-yl}-2-[2-(piperidin-1-yl)ethoxy]aniline] are 5.1 ± 1.3 µM, 5.4 ± 0.4 µM, 3.0 and 1.8.
For the molecule `CN(C)Cc1ccn(-c2ccc(NCCCN3CCCCC3)c(OCCN3CCCCC3)c2)c1` [Compound 51, 4-(3-[(Dimethylamino)methyl]-1H-pyrrol-1-yl)-2-[2-(piperidin-1-yl)ethoxy]-N-[3-(piperidin-1-yl)propyl]aniline], the 50% inhibitory concentration (IC50) (commonly the concentration at which inhibition is half-maximal) with Aβ1-40 peptide secretion amounted to 5 ± 0.9 µM; in the test with Aβ1-42 peptide secretion, 6.5 ± 2 µM. Further, in the test on CTFα, the “CTFα vs CQ (3 μM)” value came to 3.6. Besides, the “AICD vs CQ (3 μM)” value in the test with AICD is on record as 2.0.
Take `CN1CCN(Cc2ccccc2-c2ccc(NCCCN3CCCCC3)c(OCCN3CCCCC3)c2)CC1` [Compound 29, 4-(2-[(4-Methylpiperazin-1-yl)methyl]phenyl)-2-[2-(piperidin-1-yl)ethoxy]-N-[3-(piperidin-1-yl)propyl]aniline]: the IC50 with Aβ1-40 peptide secretion stood at 2.6 ± 0.2 µM; in the test on Aβ1-42 peptide secretion it was 2.7 ± 0.8 µM. In addition, in the test on CTFα, the “CTFα vs CQ (3 μM)” value was determined as 5.1. Moreover, the “AICD vs CQ (3 μM)” value with AICD was 3.7.
On the same counts, the results for `CN(C)Cc1ccc(-c2ccc(NCCCN3CCCCC3)c(OCCN3CCCCC3)c2)cc1` [Compound 25, 4-(4-[(Dimethylamino)methyl]phenyl)-2-[2-(piperidin-1-yl)ethoxy]-N-[3-(piperidin-1-yl)propyl]aniline] are 1.5 ± 0.1 µM, 1.7 ± 0.4 µM, 2.1 and 2.5.
For the molecule `CN(C)CCCNc1ccc(-n2ccc(CN3CCCCC3)c2)cc1OCCN1CCCCC1` [Compound 56, N-[3-(Dimethylamino)propyl]-2-[2-(piperidin-1-yl)ethoxy]-4-[3-(piperidin-1-ylmethyl)-1H-pyrrol-1-yl]aniline], the IC50 in the test on Aβ1-40 peptide secretion worked out at 5.3 ± 0.1 µM; with Aβ1-42 peptide secretion, 6.3 ± 0.7 µM. For the same molecule, in the test with CTFα, the “CTFα vs CQ (3 μM)” value is 2.5. In addition, the “AICD vs CQ (3 μM)” value with AICD was 2.7.
`CN1CCN(Cc2ccn(-c3ccc(NCCCN4CCCCC4)c(OCCN4CCCCC4)c3)c2)CC1` [Compound 54, 4-(3-[(4-Methylpiperazin-1-yl)methyl]-1H-pyrrol-1-yl)-2-[2-(piperidin-1-yl)ethoxy]-N-[3(piperidin-1-yl)propyl]aniline]: the IC50 in the test on Aβ1-40 peptide secretion was determined as 8.3 ± 4 µM; in the test with Aβ1-42 peptide secretion it was 12.1 ± 7.8 µM.
